Data as given in patent EP4596574A1, “GLP-1/GCG/GIP TRIPLE-RECEPTOR AGONIST AND USE THEREOF” (Sunshine Lake Pharma Co., Ltd., priority 2022, dated 2024).
“Also recorded” adds a separate entry of the source. Marks after values point to notes of the source that are not given here.

Assays:
GIPR = target: T1, GIPR (Homo sapiens, UniProt P48546); assay: In vitro cell activity, cAMP production in HEK293 cells expressing GIPR; assay type: cell-based
T1 construct: expressed in transfected cells; host or cells: HEK293 (HEK293-GIPR)
T1 sequence (P48546 22-466): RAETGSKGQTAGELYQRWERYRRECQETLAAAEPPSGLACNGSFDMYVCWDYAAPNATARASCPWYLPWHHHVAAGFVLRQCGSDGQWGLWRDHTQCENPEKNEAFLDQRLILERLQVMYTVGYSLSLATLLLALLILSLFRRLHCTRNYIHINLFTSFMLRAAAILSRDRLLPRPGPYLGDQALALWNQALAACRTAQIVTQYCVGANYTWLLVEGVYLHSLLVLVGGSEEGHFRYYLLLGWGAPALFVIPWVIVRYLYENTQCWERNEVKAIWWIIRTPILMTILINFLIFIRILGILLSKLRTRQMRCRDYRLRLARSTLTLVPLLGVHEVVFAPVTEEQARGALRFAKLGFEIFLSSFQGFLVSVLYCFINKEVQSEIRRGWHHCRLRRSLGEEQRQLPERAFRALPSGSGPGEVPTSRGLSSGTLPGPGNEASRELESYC
Procedure, shortened: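 cAMP accumulation is quantified by homogeneous TR-FRET (cAMP-d2 plus anti-cAMP cryptate) in GIPR-expressing HEK293 cells seeded from a 4×10^5 cells/mL suspension and treated with compound. The signal ratio is plotted against concentration and fitted to a four-parameter curve to give EC50.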

[1] = In vivo efficacy evaluation in db/db mouse model (blood glucose); parameters: species or system db/db mice
Experimental: Blood glucose was tested before each administration.

GLP-1R = target: T2, GLP-1R (Homo sapiens, UniProt P43220); assay: In vitro cell activity, cAMP production in HEK293 cells expressing GLP-1R; assay type: cell-based
T2 construct: expressed in transfected cells; host or cells: HEK293 (HEK293-GLP-1R)
Procedure, shortened: (§1)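 Assay format: cells at 4×10^5 cells/mL, cAMP sensed by d2/cryptate FRET pair, dual-wavelength read at 665 and 620 nm. Potency expressed as EC50 from nonlinear fitting.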

[2] = Long-term repeated administration in diet-induced obese C57BL/6 mice (DIO); assay type: in vivo, C57/BL6 mice
GCGR = target: T3, GCGR (Homo sapiens, UniProt P47871); assay: In vitro cell activity, cAMP production in HEK293 cells expressing GCGR; assay type: cell-based
T3 construct: expressed in transfected cells; host or cells: HEK293 (HEK293-GCGR)
Procedure, shortened: as §1

[3] = 10 nmol/kg s.c. once every 3 days, D7
[4] = 10 nmol/kg s.c. once every 3 days, D10
[5] = 10 nmol/kg s.c. once every 3 days, D13
[6] = 10 nmol/kg s.c. once every 3 days, D16
[7] = 10 nmol/kg s.c. once every 3 days, D19
[8] = 10 nmol/kg s.c. once every 3 days, D22
[9] = 10 nmol/kg s.c. once every 3 days, D25
[10] = 10 nmol/kg s.c. once every 3 days, D28
[11] = after 4 weeks of administration
[12] = after 4 weeks of administration, same dose
[13] = long-term administration 10 nmol/kg, 72 h after the last administration
[14] = long-term administration 10 nmol/kg, blood biochemical index

T2 sequence (P43220 24-463, species assumed): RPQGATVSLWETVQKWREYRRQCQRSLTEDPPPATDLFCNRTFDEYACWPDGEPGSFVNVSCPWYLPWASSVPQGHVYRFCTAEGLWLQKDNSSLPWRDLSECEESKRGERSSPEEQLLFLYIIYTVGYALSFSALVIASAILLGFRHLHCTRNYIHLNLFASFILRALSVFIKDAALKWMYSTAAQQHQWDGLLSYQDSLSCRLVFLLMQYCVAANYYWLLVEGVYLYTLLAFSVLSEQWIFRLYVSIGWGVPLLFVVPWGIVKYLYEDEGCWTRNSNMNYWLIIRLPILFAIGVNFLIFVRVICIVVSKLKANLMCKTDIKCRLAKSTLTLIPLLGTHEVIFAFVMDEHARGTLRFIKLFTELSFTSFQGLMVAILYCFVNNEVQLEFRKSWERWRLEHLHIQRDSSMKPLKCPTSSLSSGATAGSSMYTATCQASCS
T3 sequence (P47871 26-477, species assumed): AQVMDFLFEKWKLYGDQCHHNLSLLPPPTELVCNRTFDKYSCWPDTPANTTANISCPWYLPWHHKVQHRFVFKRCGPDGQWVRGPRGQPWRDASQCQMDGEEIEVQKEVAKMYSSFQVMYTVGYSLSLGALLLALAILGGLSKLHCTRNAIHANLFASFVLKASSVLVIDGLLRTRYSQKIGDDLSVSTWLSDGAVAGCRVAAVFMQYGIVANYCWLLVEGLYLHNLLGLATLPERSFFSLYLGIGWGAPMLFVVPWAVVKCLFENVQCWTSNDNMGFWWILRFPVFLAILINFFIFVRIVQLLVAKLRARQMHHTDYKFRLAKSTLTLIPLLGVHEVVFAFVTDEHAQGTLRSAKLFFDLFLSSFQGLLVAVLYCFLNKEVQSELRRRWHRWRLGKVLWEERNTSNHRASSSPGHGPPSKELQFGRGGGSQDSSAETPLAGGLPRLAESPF

CC[C@H](C)[C@H](NC(=O)[C@H](Cc1ccccc1)NC(=O)[C@H](C)NC(=O)[C@H](CCCNC(=N)N)NC(=O)[C@H](CCC(N)=O)NC(=O)[C@H](CCCNC(=N)N)NC(=O)[C@H](CCCCNC(=O)COCCOCCNC(=O)CC[C@H](NC(=O)CCCCCCCCCCCCCCCCCCC(=O)O)C(=O)O)NC(=O)[C@H](CCC(=O)O)NC(=O)[C@H](CC(=O)O)NC(=O)[C@H](CC(C)C)NC(=O)[C@H](CC(C)C)NC(=O)[C@@H](NC(=O)[C@H](CO)NC(=O)[C@H](Cc1ccc(O)cc1)NC(=O)[C@H](CC(=O)O)NC(=O)[C@H](CO)NC(=O)[C@@H](NC(=O)[C@](C)(Cc1ccccc1F)NC(=O)[C@@H](NC(=O)CNC(=O)[C@H](CCC(N)=O)NC(=O)C(C)(C)NC(=O)[C@@H](N)Cc1ccc(O)cc1)[C@@H](C)O)[C@@H](C)O)[C@@H](C)CC)C(=O)N[C@@H](CCC(=O)O)C(=O)N[C@@H](Cc1ccc(O)cc1)C(=O)N[C@@H](CC(C)C)C(=O)N[C@@H](CC(C)C)C(=O)N[C@@H](C)C(=O)NCC(=O)NCC(=O)N1CCC[C@H]1C(=O)N[C@@H](CO)C(=O)N[C@@H](CO)C(=O)NCC(=O)N[C@@H](C)C(=O)N1CCC[C@H]1C(=O)N1CCC[C@H]1C(=O)N1CCC[C@H]1C(=O)N[C@@H](CO)C(=O)O [HEC-PT86]
EC50 (GIPR): 0.113 nM | blood glucose after administration ([1]; db/db mice, 10 nmol/kg): significantly reduce blood glucose | Random blood glucose (mM) D0 ([1]; db/db mice, 10 nmol/kg s.c. once every three days, D0 (before first dose)): 27.3 ± 3.6 mM | Random blood glucose (mM) D3 ([1]; db/db mice, 10 nmol/kg s.c. once every three days, D3): 9.2 ± 5.6 mM | Random blood glucose (mM) D4 ([1]; db/db mice, 10 nmol/kg s.c. once every three days, D4): 16.2 ± 6.5 mM | Random blood glucose (mM) D5 ([1]; db/db mice, 10 nmol/kg s.c. once every three days, D5): 18.8 ± 5.7 mM | Random blood glucose (mM) D6 ([1]; db/db mice, 10 nmol/kg s.c. once every three days, D6): 23.0 ± 3.7 mM | Random blood glucose (mM) D7 ([1]; db/db mice, 10 nmol/kg s.c. once every three days, D7): 21.0 ± 4.4 mM | Random blood glucose (mM) D10 ([1]; db/db mice, 10 nmol/kg s.c. once every three days, D10): 9.1 ± 2.3 mM | Random blood glucose (mM) D13 ([1]; db/db mice, 10 nmol/kg s.c. once every three days, D13): 9.6 ± 3.2 mM | Random blood glucose (mM) D16 ([1]; db/db mice, 10 nmol/kg s.c. once every three days, D16): 8.4 ± 1.7 mM | Random blood glucose (mM) D19 ([1]; db/db mice, 10 nmol/kg s.c. once every three days, D19): 12.0 ± 3.3 mM | Random blood glucose (mM) D22 ([1]; db/db mice, 10 nmol/kg s.c. once every three days, D22): 11.6 ± 3.8 mM | Random blood glucose (mM) D25 ([1]; db/db mice, 10 nmol/kg s.c. once every three days, D25): 13.1±3.3^a mM | Random blood glucose (mM) 6 h ([1]; db/db mice, 10 nmol/kg s.c., 6 h): 15.4 ± 4.4 mM | Random blood glucose (mM) 24 h ([1]; db/db mice, 10 nmol/kg s.c., 24 h): 6.5 ± 1.4 mM | Random blood glucose (mM) 48 h ([1]; db/db mice, 10 nmol/kg s.c., 48 h): 7.9 ± 2.8 mM | time at which blood glucose levels reached the lowest level ([1]; db/db mice, 10 nmol/kg, after administration): about 24 hours | blood glucose lowering after long-term administration compared with LY3298176 ([1]; db/db mice, long-term repeated administration): better than that of the LY3298176 group; also recorded: better hypoglycemic effect than LY3298176 | blood glucose reducing effect after administration compared with LY3298176 ([1]; db/db mice, same dose 10 nmol/kg): slightly better than the positive control LY3298176 | blood glucose level after long-term administration ([1]; type II diabetes model db/db mice): significantly improve the blood glucose level | EC50 (GLP-1R): 0.158 nM | Cumulative food intake (g/pcs) D7 [2, 3]: 8.4 g/pcs | Weight gain rate (%) D7 [2, 3]: -17.8±5.8% | Cumulative food intake (g/pcs) D10 [2, 4]: 11.6 g/pcs | Weight gain rate (%) D10 [2, 4]: -23.5±6.6% | Cumulative food intake (g/each) D13 [2, 5]: 14.5 g/each | Weight gain rate (%) D13 [2, 5]: -26.1±7.2% | Cumulative food intake (g/each) D16 [2, 6]: 19.3 g/each | Weight gain rate (%) D16 [2, 6]: -27.9±7.6% | Cumulative food intake (g/each) D19 [2, 7]: 24.5 g/each | Weight gain rate (%) D19 [2, 7]: -29.2±8.1% | Cumulative food intake (g/each) D22 [2, 8]: 30.4 g/each | Weight gain rate (%) D22 [2, 8]: -29.3±7.2% | Cumulative food intake (g/each) D25 [2, 9]: 36.6 g/each | Weight gain rate (%) D25 [2, 9]: -30.6±7.0% | Cumulative food intake (g/each) D28 [2, 10]: 43.4 g/each | Weight gain rate (%) D28 [2, 10]: -31.2±6.4% | Cumulative food intake (g/each) D30 ([2]; 10 nmol/kg s.c. once every 3 days, D30): 47.0^a g/each | Weight gain rate (%) D31 ([2]; 10 nmol/kg s.c. once every 3 days, D31): -30.9±6.4^a % | Cumulative food intake (g/pcs) D0 ([2]; 10 nmol/kg s.c., D0): 2.5 g/pcs | Weight gain rate (%) D0 ([2]; 10 nmol/kg s.c., D0): 0.0±0.0% | Cumulative food intake (g/pcs) D1 ([2]; 10 nmol/kg s.c., D1): 2.9 g/pcs | Weight gain rate (%) D1 ([2]; 10 nmol/kg s.c., D1): -6.0±0.8% | Cumulative food intake (g/pcs) D2 ([2]; 10 nmol/kg s.c., D2): 3.5 g/pcs | Weight gain rate (%) D2 ([2]; 10 nmol/kg s.c., D2): -8.8±1.4% | Cumulative food intake (g/pcs) D3 ([2]; 10 nmol/kg s.c., D3): 4.5 g/pcs | Weight gain rate (%) D3 ([2]; 10 nmol/kg s.c., D3): -9.9±1.6% | Cumulative food intake (g/pcs) D4 ([2]; 10 nmol/kg s.c., D4): 5.8 g/pcs | Weight gain rate (%) D4 ([2]; 10 nmol/kg s.c., D4): -10.6±2.9% | liver function and blood lipids of DIO mice [2, 11]: significantly improved the liver function and blood lipids | weight loss and food intake inhibition effects compared with Semaglutide [2, 11]: superior to the positive drug Semaglutide | food intake inhibition effect compared with LY3298176 [2, 12]: comparable to those of the same dose of the positive drug LY3298176 | weight loss effect compared with LY3298176 [2, 12]: comparable to those of the same dose of the positive drug LY3298176 | Liver index/% [2, 13]: 2.7±0.0^a % | Liver/g [2, 13]: 0.9±0.1^a g | Weight/g [2, 13]: 32.3±4.4^a g | ALT (U/L) [2, 14]: 27.8±9.4^a U/L | AST (U/L) [2, 14]: 108.6±26.3^a U/L | CHOL (mmol/L) [2, 14]: 3.5±0.7^a mmol/L | TRIGL (mmol/L) [2, 14]: 0.6±0.1^a mmol/L | EC50 (GCGR): 0.806 nM
